System: C. parvum
Assay: In vitro activity against C. parvum infectivity in MDBK cell monolayers (indirect immunofluorescence assay)
Assay type: cell-based
Conditions: Cryptosporidium parvum, 2 mg/mL, positive control drug, 48 hours
Method: Confluent MDBK cell monolayers were grown on 16 well slides, and infected with 5×10^5 of C. parvum oocysts per well. Various dilutions of the test reagents in dimethylsulfoxide (DMSO) were added to the monolayers and cultures were incubated at 37° C.(8% CO2) for 48 hours. The level of C. parvum infections was determined and analysed by an indirect immunofluorescence (IF) assay at 48 hours. Anti-C. parvum sporozoite rabbit serum (1:1000) was used as the primary antibody, and fluorscein-conjugated anti rabbit goat serum (1:100) was used as the secondary antibody. Each dilution was tested in quadruple, and each assay was performed at least two times. The monolayers were methanol fixed and, after IF labelling, the number of parasites observed in 10 high power fields (HPF) per well in each of the four wells per dilution was counted, statistically analysed and compared with infected wells which contained DMSO only. Paromomycin was used as the positive control drug.

## NC[C@@H]1O[C@H](O[C@H]2[C@@H](O)[C@H](O[C@@H]3[C@@H](O)[C@H](N)C[C@H](N)[C@H]3O[C@H]3O[C@H](CO)[C@@H](O)[C@H](O)[C@H]3N)O[C@@H]2CO)[C@H](N)[C@@H](O)[C@@H]1O [paromomycin]
  inhibition at 2000 µg/mL: 79.4%
